Experimental data as given in ChEMBL document CHEMBL3603763, “Phosphate-modified analogues of m(7)GTP and m(7)Gppppm(7)G-Synthesis and biochemical properties” (Bioorg Med Chem, 2015).

Key:
[1] = biological target: Eukaryotic translation initiation factor 4E (Oryctolagus cuniculus) (UniProt P29338); assay: Inhibition of eIF4E-mediated translation in flexi rabbit reticulocyte lysate using luciferase mRNA by luminescence based luciferase assay relative to m7GpppG
m7GpppX diphosphatase = biological target: T1, m7GpppX diphosphatase (Homo sapiens, UniProt Q96C86); assay: Stability of the compound assessed as human DcpS-mediated compound hydrolysis at 40 uM after 10 to 180 mins by HPLC analysis; type: ADME
T1 sequence (Q96C86 whole entry): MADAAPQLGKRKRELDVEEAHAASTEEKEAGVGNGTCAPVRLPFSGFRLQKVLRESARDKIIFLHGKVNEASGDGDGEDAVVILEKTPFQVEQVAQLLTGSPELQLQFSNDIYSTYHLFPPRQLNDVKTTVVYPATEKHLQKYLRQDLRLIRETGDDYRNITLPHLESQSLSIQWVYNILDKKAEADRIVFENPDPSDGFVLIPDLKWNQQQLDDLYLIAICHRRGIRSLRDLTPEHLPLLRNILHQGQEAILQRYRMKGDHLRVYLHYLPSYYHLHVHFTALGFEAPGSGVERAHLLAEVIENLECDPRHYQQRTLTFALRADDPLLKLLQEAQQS

Serum [2] = assay: Stability of the compound in 5% fetal bovine serum at 50 uM up to 240 mins by RP-HPLC analysis; type: ADME, cell-free, Bos taurus; conditions: cattle, 4 h
Serum [3] = assay: Stability of the compound in 10% fetal bovine serum at 50 uM up to 240 mins by RP-HPLC analysis; type: ADME, cell-free, Bos taurus; conditions: cattle, 4 h
[4] = Chemical stability of the compound in aqueous buffer at pH 4 to 8.5; type: physicochemical
[5] = Chemical stability of the compound in glycine buffer at pH 2.2; type: physicochemical
[6] = biological target: Eukaryotic translation initiation factor 4E (Homo sapiens) (UniProt P06730)
Eukaryotic translation initiation factor 4E (Homo sapiens), sequence (P06730 whole entry): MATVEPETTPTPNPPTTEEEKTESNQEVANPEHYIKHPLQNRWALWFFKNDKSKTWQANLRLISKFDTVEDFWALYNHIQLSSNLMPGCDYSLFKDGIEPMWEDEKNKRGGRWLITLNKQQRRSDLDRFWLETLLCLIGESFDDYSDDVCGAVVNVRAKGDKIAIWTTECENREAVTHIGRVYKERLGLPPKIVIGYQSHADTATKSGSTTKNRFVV
Description: Binding affinity to eIF4E (unknown origin) by fluorescence quenching assay

[7] = biological target: T2, Eukaryotic translation initiation factor 4E (Oryctolagus cuniculus, UniProt P29338); assay: Inhibition of eIF4E-mediated translation in flexi rabbit reticulocyte lysate using luciferase mRNA preincubated for 60 mins before mRNA addition by luminescence based luciferase assay
T2 sequence (P29338 whole entry): as the sequence (P06730 whole entry) above, with T16P, T17A, E174D counted along it

[8] = biological target: T2, Eukaryotic translation initiation factor 4E; assay: Inhibition of eIF4E-mediated translation in flexi rabbit reticulocyte lysate using luciferase mRNA treated simultaneously with mRNA by luminescence based luciferase assay
[9] = Chemical stability of the compound in […] buffer at pH 8.5; type: physicochemical
[10] = Chemical stability of the compound in glycine buffer at pH 2.2 after 16 hrs; type: physicochemical; conditions: pH 2.2, 16 h
[11] = biological target: T3, DcpS (m7GpppX diphosphatase) (Homo sapiens, UniProt Q96C86); assay: Stability of the compound assessed as human DcpS-mediated compound hydrolysis at 40 uM after 180 mins by HPLC analysis; type: ADME; conditions: human DcpS enzyme (m7GpppX diphosphatase), read-out: Drug degradation
T3 sequence (Q96C86 whole entry): T1 sequence (Q96C86 whole entry)

[12] = Chemical stability of the compound in phosphate buffer at pH 7 assessed as compound decomposition; type: physicochemical; conditions: read-out: Drug degradation

Eukaryotic translation initiation factor 4E (Oryctolagus cuniculus), sequence (P29338 whole entry): as the sequence (P06730 whole entry) above, with T16P, T17A, E174D counted along it

Row | Ratio [1] | Stability (m7GpppX diphosphatase) | Ka [6] [µM⁻¹] | Structure (SMILES) | IC50 [7] [nM] | other results
1 | 0.85 | – | – | B[P@](=O)(OC[C@H]1O[C@@H](n2c[n+](C)c3c(O)nc(N)nc32)[C@H](O)[C@@H]1O)OP(=O)([O-])CP(=O)([O-])O[P@@](B)(=O)OC[C@H]1O[C@@H](n2c[n+](C)c3c(O)nc(N)nc32)[C@H](O)[C@@H]1O | – | –
2 | – | Stable | – | C[n+]1cn([C@@H]2O[C@H](COP(=O)([O-])OP(=O)(O)OP(=O)(O)O)[C@@H](O)[C@H]2O)c2nc(N)[nH]c(=O)c21 | – | Stability (Serum [2]): Unstable; Stability (Serum [3]): Unstable
3 | – | – | – | [BH3-]P(=O)(OC[C@H]1O[C@@H](n2c[n+](C)c3c(O)nc(N)nc32)[C@H](O)[C@@H]1O)OP(=O)(O)OP(=O)(O)O (stereo not given in full) | – | Stability [4]: Stable; Stability [5]: Unstable
4 | 1.18 | – | – | B[P@](=O)(OC[C@H]1O[C@@H](n2c[n+](C)c3c(O)nc(N)nc32)[C@H](O)[C@@H]1O)OP(=O)([O-])CP(=O)([O-])O[P@](B)(=O)OC[C@H]1O[C@@H](n2c[n+](C)c3c(O)nc(N)nc32)[C@H](O)[C@@H]1O | – | –
5 | – | – | 19.5 | C[n+]1cn([C@@H]2O[C@H](COP(=O)(O)OP(=O)(O)CP(=O)(O)O)[C@@H](O)[C@H]2O)c2nc(N)nc([O-])c21 | – | –
6 | 1.56 | – | – | C[n+]1cn([C@@H]2O[C@H](CO[P@](=O)(S)OP(=O)([O-])CP(=O)([O-])O[P@](=O)(S)OC[C@H]3O[C@@H](n4c[n+](C)c5c(O)nc(N)nc54)[C@H](O)[C@@H]3O)[C@@H](O)[C@H]2O)c2nc(N)nc(O)c21 | – | –
7 | 3.14 | – | – | C[n+]1cn([C@@H]2O[C@H](COP(=O)(O)OP(=O)(O)OP(=O)(O)OP(=O)(O)OC[C@H]3O[C@@H](n4c[n+](C)c5c([O-])nc(N)nc54)[C@H](O)[C@@H]3O)[C@@H](O)[C@H]2O)c2nc(N)nc([O-])c21 | – | –
8 | – | Stable | – | C[n+]1cn([C@@H]2O[C@H](COP(=O)(O)OP(=O)([O-])OP(=O)(O)OC[C@H]3O[C@@H](n4cnc5c(=O)[nH]c(N)nc54)[C@H](O)[C@@H]3O)[C@@H](O)[C@H]2O)c2nc(N)[nH]c(=O)c21 | 25000 | –
9 | – | – | 9.4 | C[n+]1cn([C@@H]2O[C@H](COP(=O)(O)OP(=O)([O-])OP(=O)(O)OC[C@H]3O[C@@H](n4cnc5c(=O)[nH]c(N)nc54)[C@H](O)[C@@H]3O)[C@@H](O)[C@H]2O)c2nc(N)nc(O)c21 | – | –
10 | – | Unstable | 190 | C[n+]1cn([C@@H]2O[C@H](CO[P@@](=O)(S)OP(=O)([O-])OP(=O)(O)O)[C@@H](O)[C@H]2O)c2nc(N)nc(O)c21.N.N.N.N | 1300 | Stability (Serum [2]): Stable; Stability (Serum [3]): Stable; IC50 [8]: 1440 nM
11 | 1.12 | – | – | C[n+]1cn([C@@H]2O[C@H](CO[P@@](=O)(S)OP(=O)([O-])CP(=O)([O-])O[P@](=O)(S)OC[C@H]3O[C@@H](n4c[n+](C)c5c(O)nc(N)nc54)[C@H](O)[C@@H]3O)[C@@H](O)[C@H]2O)c2nc(N)nc(O)c21 | – | –
12 | 1.5 | – | – | CO[C@H]1[C@@H](O)[C@H](n2c[n+](C)c3c(O)nc(N)nc32)O[C@@H]1COP(=O)(O)OP(=O)([O-])OP(=O)(O)OC[C@H]1O[C@@H](n2cnc3c(=O)[nH]c(N)nc32)[C@H](O)[C@@H]1O | – | –
13 | – | Unstable | 136 | B[P@](=O)(OC[C@H]1O[C@@H](n2c[n+](C)c3c(O)nc(N)nc32)[C@H](O)[C@@H]1O)OP(=O)([O-])OP(=O)(O)O.N.N.N.N | 3260 | IC50 [8]: 4120 nM
14 | – | – | – | C[n+]1cn([C@@H]2O[C@H](COP(=O)(O)OP(=O)(O)NP(=O)(O)O)[C@@H](O)[C@H]2O)c2nc(N)nc([O-])c21 | – | Stability [9]: Unstable; Stability [10]: Unstable
15 | 2.66 | – | – | C[n+]1cn([C@@H]2O[C@H](COP(=O)(O)OP(=O)(O)OP(=O)(O)OC[C@H]3O[C@@H](n4c[n+](C)c5c([O-])nc(N)nc54)[C@H](O)[C@@H]3O)[C@@H](O)[C@H]2O)c2nc(N)nc([O-])c21 | – | –
16 | 0.99 | – | – | B[P@@](=O)(OC[C@H]1O[C@@H](n2c[n+](C)c3c(O)nc(N)nc32)[C@H](O)[C@@H]1O)OP(=O)([O-])CP(=O)([O-])O[P@](B)(=O)OC[C@H]1O[C@@H](n2c[n+](C)c3c(O)nc(N)nc32)[C@H](O)[C@@H]1O | – | –
17 | 1.86 | – | – | C[n+]1cn([C@@H]2O[C@H](CO[P@](=O)(S)OP(=O)([O-])CP(=O)([O-])O[P@@](=O)(S)OC[C@H]3O[C@@H](n4c[n+](C)c5c(O)nc(N)nc54)[C@H](O)[C@@H]3O)[C@@H](O)[C@H]2O)c2nc(N)nc(O)c21 | – | –
18 | – | – | – | [BH3-]P(=O)(OC[C@H]1O[C@@H](n2c[n+](C)c3c(O)nc(N)nc32)[C@H](O)[C@@H]1O)OP(=O)(O)CP(=O)(O)O (stereo not given in full) | – | Stability [4]: Stable; Stability [5]: Unstable
19 | – | Unstable | 148 | B[P@@](=O)(OC[C@H]1O[C@@H](n2c[n+](C)c3c(O)nc(N)nc32)[C@H](O)[C@@H]1O)OP(=O)([O-])OP(=O)(O)O.N.N.N.N | 1280 | metabolised at 3 h, 40 µM [11]: 19%; IC50 [8]: 1190 nM
20 | – | Unstable | 371 | C[n+]1cn([C@@H]2O[C@H](CO[P@](=O)(S)OP(=O)([O-])OP(=O)(O)O)[C@@H](O)[C@H]2O)c2nc(N)nc(O)c21.N.N.N.N | – | Stability (Serum [2]): Stable; Stability (Serum [3]): Stable
21 | – | – | – | B[P@@](=O)(OC[C@H]1O[C@@H](n2c[n+](C)c3c(O)nc(N)nc32)[C@H](O)[C@@H]1O)OP(=O)([O-])OP(=O)([O-])O[P@](B)(=O)OC[C@H]1O[C@@H](n2c[n+](C)c3c(O)nc(N)nc32)[C@H](O)[C@@H]1O | – | metabolised at 3 h, 40 µM [11]: 81%
22 | – | – | – | [BH3-]P(=O)(OC[C@H]1O[C@@H](n2c[n+](C)c3c(O)nc(N)nc32)[C@H](O)[C@@H]1O)OP(=O)(O)NP(=O)(O)O (stereo not given in full) | – | Stability [9]: Unstable; Stability [10]: Unstable; degraded [12]: > 50%

Row | Structure (SMILES) | Ratio [1] | Stability (m7GpppX diphosphatase) | Ka [6] [µM⁻¹] | IC50 [7] [nM] | other results
23 | B[P@@](=O)(OC[C@H]1O[C@@H](n2c[n+](C)c3c(O)nc(N)nc32)[C@H](O)[C@@H]1O)OP(=O)([O-])CP(=O)(O)O.N.N.N.N | – | Unstable | 36.1 | 3260 | IC50 [8]: 2550 nM
24 | B[P@](=O)(OC[C@H]1O[C@@H](n2c[n+](C)c3c(O)nc(N)nc32)[C@H](O)[C@@H]1O)OP(=O)([O-])CP(=O)(O)O.N.N.N.N | – | Unstable | 18.5 | 3220 | IC50 [8]: 4470 nM
25 | C[n+]1cn([C@@H]2O[C@H](CO[P@@](=O)(S)OP(=O)([O-])CP(=O)(O)O)[C@@H](O)[C@H]2O)c2nc(N)nc(O)c21.N.N.N.N | – | Unstable | 41.8 | 2610 | Stability (Serum [2]): Unstable; Stability (Serum [3]): Unstable; IC50 [8]: 3680 nM
26 | C[n+]1cn([C@@H]2O[C@H](CO[P@](=O)(S)OP(=O)([O-])CP(=O)(O)O)[C@@H](O)[C@H]2O)c2nc(N)nc(O)c21.N.N.N.N | – | Unstable | 85.9 | 1240 | Stability (Serum [2]): Stable; Stability (Serum [3]): Stable; IC50 [8]: 1490 nM
